# Experimental data from patent US20100247433A1, “Use of non-canonical amino acids as metabolic markers for rapidly-dividing cells” (California Institute of Technology, priority 2005, published 2010).
# Entries after “also recorded” stand apart in the source; their conditions may differ. Like-named read-outs stand apart in the source and are kept apart here.
# Experiments:
# [1] = tested on: dissociated hippocampal neurons; assay: Fluorescent tagging (TRA/FLA tag) of AHA- or HPG-incorporated proteins in neurons; format: cell-based, rat; conditions: 1 hour; for incorporation into neurons (fluorescent tag detection): DIV 17, 4 mM, 1 μM TRA or FLA tag
# Protocol: (§1) Dissociated hippocampal neuron cultures were prepared from newborn rat pups (PO) as outlined in (Banker and Goslin, 1990), Neurons were plated at a density of 15,000-45,000 cells/cm^2 onto poly-D-lysine coated cell culture dishes or onto poly-D-lysine and growth factor reduced matrigel (BD Biosciences) coated polycarbonate nets with a pore size of 3 μm (Transwell, Corning) for the preparation of isolated dendrites. The cultures were maintained and allowed to mature in growth medium (Neurobasal-A supplemented with B27 and GlutaMAX-1) for 14 to 21 days before use. The use of this growth medium suppressed glial proliferation, which was even more reduced by application of Ara-C (5 μM final concentration). To supplement glial neurotrophic factors, 25% conditioned growth media from glial and cortical cultures were added to the growth media. Isolated dendrites were obtained from Transwell cultures by removing the cell body layer with a sterile cell lifter after change to HBS. For immunolabeling after AHA-incorporation and cycloaddition with BiotinCyclooctyne, neurons are fixed at room temperature with 4% paraformaldehyde for 20 minutes. Fixed cultures are then treated sequentially with PBS, blocking solution (0.2% Triton X-100, 2 mg/ml BSA, 5% Sucrose, 10% normal horse serum in PBS), primary Ab in blocking solution at 4° C. overnight, PBS-Tx (0.2% Triton X-100 in PBS), Alexa488- or Alexa568-conjugated secondary Ab in blocking solution, PBS-Tx and PBS. Immunostained specimens are imaged in PBS with an Olympus confocal microscope or two-photon microscope through either a 10× or a 63× oil-immersion lens. Alexa568 is excited at 543 nm and Alexa488 at 488 nm. Images are recorded through standard emission filters at contrast settings for which the crossover between the two channels is negligible.
# In certain embodiments of the invention, two or more pairs of different non-natural amino acid/labeling reagents may be used to simultaneously or sequentially label the newly synthesized proteins. […]
# [2] = tested on: HEK293 cells; assay: Specificity of AHA labelling of newly synthesized proteins, anti-biotin Western blot after [3+2] cycloaddition; format: cell-based; conditions: 2 hrs with AHA plus inhibitor
# Protocol: In embodiments using [3+2] Cycloaddition, the following exemplary protocol may be used. Briefly, AHA, Biotin-PEO-Propargylamide and the triazole ligand were prepared as described previously. The tandem featured alkyne tag was synthesized by GenScript Corporation. Biotin-Cyclooctyne is a generous gift from Carolyn Bertozzi. D10-L-leucine was purchased from Sigma. In all culture experiments, growth medium was removed from HEK293 cells, whole neuronal cultures or isolated dendrites were replaced with HEPES-buffered solution (HBS) with 2.86 mM AHA, and 2.86 mM methionine for control experiments. After incubation at 37° C., 5% CO2, cells were washed with PBS-MC (1 mM MgCl2, 0.1 mM CaCl2 in PBS) to remove excess amounts of AHA and methionine. SNS and other biochemical fractions are incubated with 2.86 mM AHA or 2.86 mM methionine under agitation at 37° C. and washed in StimBuffer after incubation. […]
# (§2) To show the specificity of this technique for the detection of newly synthesized proteins, HEK293 cells were incubated for 2 hrs with AHA in the presence or absence of a protein synthesis inhibitor (Anisomycin or Cycloheximide). […] The potential for increased protein degradation was measured by examining the ubiquitin signal strength on a Western blot from whole lysates of HEK293 cells, which were treated with AHA, methionine or incubation buffer for two hours.
# [3] = tested on: dendrites of hippocampal neurons; assay: Time-course of detection of newly synthesized proteins in dendrites; format: cell-based, rat
# Protocol: as §1
# Representative straightened dendrites of neurons (DIV 16) incubated with 4 mM AHA, 4 mM Methionine (Met) or AHA plus 40 μM anisomycin (Aniso) for time points indicated. The lookup table indicates fluorescence intensity. The left end is the proximal end, the right end is the distal end. […]
# [4] = tested on: Dissociated hippocampal cultured neurons; assay: Toxicity of AHA by gross morphology of GFP-expressing neurons; format: cell-based, rat; conditions: 12 DIV neurons, 2 hrs, equimolar AHA or methionine control
# Protocol: Dissociated hippocampal neuron cultures were prepared from newborn rat pups (PO) as outlined in (Banker and Goslin, 1990), Neurons were plated at a density of 15,000-45,000 cells/cm^2 onto poly-D-lysine coated cell culture dishes or onto poly-D-lysine and growth factor reduced matrigel (BD Biosciences) coated polycarbonate nets with a pore size of 3 μm (Transwell, Corning) for the preparation of isolated dendrites. The cultures were maintained and allowed to mature in growth medium (Neurobasal-A supplemented with B27 and GlutaMAX-1) for 14 to 21 days before use. […] To supplement glial neurotrophic factors, 25% conditioned growth media from glial and cortical cultures were added to the growth media. Isolated dendrites were obtained from Transwell cultures by removing the cell body layer with a sterile cell lifter after change to HBS. For immunolabeling after AHA-incorporation and cycloaddition with BiotinCyclooctyne, neurons are fixed at room temperature with 4% paraformaldehyde for 20 minutes. […] Images are recorded through standard emission filters at contrast settings for which the crossover between the two channels is negligible. […]
# [5] = tested on: HEK293 cells; assay: Ubiquitin signal on Western blot of whole lysates (protein degradation/misfolding); format: cell-based; conditions: HEK293 cells treated two hours, compared to buffer or methionine controls
# Protocol: as §2, with “Cycloheximide). After incubation, cells were lysed and subjected to [3+2]cycloaddition with the biotin-bearing alkyne-linker Biotin-PEO-Propargylamide, followed by Western blot analysis with an anti-Biotin-antibody.” for “Cycloheximide).”
# [6] = tested on: acute hippocampal slices; assay: AHA incorporation in acute hippocampal slices, Biotin-PEO tagging, Neutravidin, Western blot; format: cell-based, rat; conditions: 400 μm slices, varying concentrations of AHA, 1.5 hours
# Protocol: These slices were recovered in artificial cerebrospinal fluid (ACSF) for at least 1 hour on organotypic membranes. Upon recovery, the slices were incubated with either a mixture of ^35S Met and ^35S Cys, or varying concentrations of AHA for 1.5 hours. FIG. 3C is a Western blot analysis for AHA-incorporated proteins from acute hippocampal slices. After AHA incorporation and slice homogenization, the homogenates were subjected to [3+2]-cycloaddition with a Biotin-PEO tag, and proteins incorporating AHA (and thus subsequently labeled by the Biotin-PEO labeling moiety) were concentrated using Neutravidin-conjugated beads (which binds the Biotin-PEO labeling moiety).
# [7] = tested on: hippocampal dysembryoplastic neuroepithelial tumor (DNT) tissue; assay: AHA labelling of newly synthesized proteins in freshly dissected DNT tumor versus control tissue, anti-biotin Western blot; format: cell-based, human; conditions: 4 mM AHA, 1 hour, 37° C., equal total protein; control lateral temporal cortex of the same patient
# Protocol: FIG. 5: Detection of newly synthesized proteins in cells of acutely dissected human brain tissue. Tumor and control cells were trypsinized and triturated before incubation with 4 mM AHA for 1 hour at 37° C. After cell lysis and Cu(I)-catalyzed tagging with a biotin-FLAG-alkyne tag, samples were subjected to Neutravidin-purification to separate newly synthesized proteins from pre-existing proteins, and analyzed on a Western blot using an anti-biotin antibody. Same total protein amounts were used for both tumor and control tissue. Input: sample before affinity purification; Supernatant: unbound material after Neutravidin-purification; NA: Neutravidin.
# Having obtained the proper conditions for labeling dissected tissues, Applicants repeated the experiments in freshly dissected human DNT tumor tissues and control tissues. […] As a control, non-diseased tissue (lateral temporal cortex) from the same patient was analyzed along with the DNT tissue.
# Freshly dissected tumor and control tissue were obtained in operating room. To ensure optimal uptake of AHA, both tissues were trypsinized and triturated into single cells before treatment with AHA and deuterated 1-lysine. Incubation with AHA was done at 37° C. under constant agitation. The tissues were subsequently lysed in SDS and Tx-100 buffer, and the newly synthesized proteins were Neutravidin (NA)-purified. […]
# [8] = tested on: mammalian cells, primary neuronal cell cultures; assay: General properties of AHA in cell cultures (previous experiments and literature); format: cell-based
# [9] = tested on: mammalian cells, primary neuronal cell cultures; conditions: Dieterich et al. 2006, cited from earlier work
structure (smiles),measurement,setting,value
"C#CCCC(N)C(=O)O (stereo not drawn) [HPG, Homopropargylglycine]",incorporation into neurons (fluorescent tag detection),[1],successfully incorporated
C[C@@H]1C[C@@H]([C@H](O)CC2CC(=O)NC(=O)C2)C(=O)[C@@H](C)C1 [Cycloheximide],anti-biotin signal of AHA-labelled proteins in the presence of the protein synthesis inhibitor,[2],No signal was detected
"COc1ccc(C[C@H]2NC[C@H](O)[C@H]2OC(C)=O)cc1 [Anisomycin, reference compound]",anti-biotin signal of AHA-labelled proteins in the presence of the protein synthesis inhibitor,[2],No signal was detected
same,effect of the protein synthesis inhibitor on AHA incorporation,[1]; 40 μM with 4 mM AHA,completely abolished AHA incorporation
same,effect of the protein synthesis inhibitor on AHA labelling of dendrites,[3]; 40 μM with AHA,completely inhibited
"[N-]=[N+]=NCC[C@H](N)C(=O)O [AHA, azidohomoalanine]","toxicity to neurons (gross morphology, GFP expression in the dendritic arbor)",[4],not toxic to neurons
same,ubiquitination of total protein,[5],No increased ubiquitination
same,incorporation into newly synthesized proteins (biotinylated proteins after Neutravidin),[6],vast enrichment of biotinylated proteins
same,"level of protein synthesis by AHA labelling, tumor versus non-diseased tissue",[7],substantially higher in cells from tumor tissue
same,incorporation into neurons (fluorescent tag detection),[1],successfully incorporated
same,time at which AHA incorporation was visible,"[3]; DIV 16, 4 mM AHA",10 min
same,time by which whole neuron soma and dendrite was filled with AHA-labeled proteins,"[3]; DIV 16, 4 mM AHA",≤ 40 min
same,cell toxicity,[8],not toxic even in primary neuronal cell cultures; also recorded: undetected cell toxicity
same,membrane permeability,[8],excellent membrane permeability
same,protein degradation upon introduction of AHA,[8]; E. coli and mammalian cells,no evidence of increased protein degradation
same,global protein synthesis rates,[9],no evidence that AHA exposure alters global protein synthesis rates
same,ubiquitination of total protein,[9]; compared to buffer or methionine controls,no increase in the ubiquitination
same,cell toxicity,[9]; incl. primary cultured postnatal neurons,not toxic to cells
